The values below come from the OPERA property sets (Mansouri et al. 2018).

`CCCNC(=O)COC(=O)Cc1ccc2cc(OC)ccc2c1`: the logP is 3.1.
On to `CC(=O)NC(CCCNC(=O)N(C)N=O)C(=O)NCc1ccccc1` (stereo unspecified), for which the logP is 0.98.
On to `CNC(=O)NCCCCC(NC(C)=O)C(=O)NCc1ccccc1` (stereo unspecified), for which the logP is 0.06.
As to `CCCN(CCCCC(NC(C)=O)C(=O)NCc1ccccc1)C(=O)NC` (stereo unspecified), the logP turned out to be 1.6.
Consider `CC1(C)CC2=NOS3=C2C(=NO3)C1`, for which the logP was 1.9.
`C#CCNC(=O)NCCCC(NC(C)=O)C(=O)NCc1ccccc1` (stereo unspecified): the logP is -0.31.
With `C#CCON=CNc1cc(F)c(OCC#C)c(OCC#C)c1`, the logP was found to be 1.8.
The same measure for `C#CCCOC(=O)Nc1ccc(OCC)c(OCC)c1`: 2.54.
The compound `CCOC(=O)Cc1ccc(-n2sc3ccccc3c2=O)cc1` displayed a logP of 3.33.
Turning to `COc1ccc2c(c1)[n+]([O-])nc(N)[n+]2[O-]`, the log partition coefficient (logP) came out at 0.
As for `Nc1ncn(C2CC(O)C(CO)O2)c(=O)n1` (stereo unspecified), the logP is -1.89.
For `CCOc1ccc(NC(=O)OC(C)CF)cc1OCC` (stereo unspecified), the logP is 2.59.
The same measure for `CCOc1ccc(-c2nnc(NC(=O)c3c(OC)cccc3OC)s2)cc1`: 3.75; for `CCCCCCCCn1c(N)c(N)c(=O)[nH]c1=O`: 2.05; for `C#CCOc1ccc(NC=NOCC)cc1OCC#C`: 1.9.
`Cc1ccnc(N)c1` returned a logP of 0.56.
Consider `CC12CCC(CC1=O)C2(C)C` (stereo unspecified), for which the logP was determined as 2.38.
For `COC1N(C2CC(N=[N+]=[N-])C(CO)O2)C(=O)NC(=O)C1(C)Cl` (stereo unspecified), the logP amounted to 0.84.
`CCCCCCOc1ccccc1NC(=O)OC1CCCCC1CN(C)C` (stereo unspecified) returned a logP of 5.9.
In the case of `Cn1c(N)c(N)c(=O)[nH]c1=O` it was -1.4; in that of `Nc1n[n+]([O-])c2ccc(Cl)cc2[n+]1[O-]`, 0.41; in that of `CCN(CC)C(=O)COC(=O)Cc1ccc2cc(OC)ccc2c1`, 3.05.
`CN(C)C(=O)Oc1ccc(Br)cc1` displayed a logP of 2.46.
In the case of `CCc1ccc(CO)cc1`, the logP stood at 2.27.
The same measure for `CN(C)C(=O)Oc1cccc([N+](=O)[O-])c1`: 1.56.
As to `c1ccc(CC2CC3=NOS4=C3C(=NO4)C2)cc1`, the logP was found to be 2.8.
In the case of `C=CCN(CC=C)C(=O)COC(=O)Cc1ccc2cc(OC)ccc2c1` it was 3.67; in that of `COc1ccc2cc(CC(=O)OCC(=O)N(C(C)C)C(C)C)ccc2c1`, 3.89; in that of `O=[N+]([O-])C=C1CCCN1Cc1ccc(Cl)nc1`, 0.68.
With `Cc1ccc2c(c1)[n+]([O-])nc(N)[n+]2[O-]`, the logP was 0.2.
For `COc1cccc(OC)c1C(=O)Nc1nnc(-c2ccc(Br)cc2)s1`, the log partition coefficient (logP) was 3.92.
The compound `OC1(Cn2cncn2)CCCC1Cc1ccc(Cl)cc1` (stereo unspecified) showed a lipophilicity (logP) of 3.11.
With `Clc1ccc(-c2ccc(Cl)c(Cl)c2)cc1`, the logP is 5.9.
In the case of `C#CCNC(=O)NCCCCC(NC(C)=O)C(=O)NCc1ccccc1` (stereo unspecified), the logP turned out to be 0.23.
Compound `C=CCNC(=O)NCCCCC(NC(C)=O)C(=O)NCc1ccccc1` (stereo unspecified) came in with a logP of 0.76.
With `CCCc1ccc(CO)cc1`, the logP came to 2.67.
`Cc1ccccc1S(=O)(=O)N1C(=O)NC(=O)C1(c1ccccc1)c1ccccc1` registered a logP of 4.
In turn, `O=C1NC(=O)C(c2ccccc2)(c2ccccc2)N1S(=O)(=O)c1ccccc1` had a logP of 4.04.
In the case of `COP(=O)(CC(C)=O)OC` it was -0.86.
In the case of `COc1ccc2cc(CC(=O)OCC(=O)N(C)CCO)ccc2c1`, the logP worked out at 1.58.
Compound `C#CCOc1cc(NC=NOCC)cc(F)c1OCC#C` yielded a logP of 2.1.
The same measure for `CC(=O)Oc1cccc(C(=O)O)c1`: 1.49.
Compound `CN(C)C(=O)Oc1ccc(C#N)cc1` had a logP of 1.21.
`Cc1cc2c(cc1C)[n+]([O-])c(N)n[n+]2[O-]`: the logP is 0.56.
With `CCOC(=O)CCCOc1ccc(-n2sc3ccccc3c2=O)cc1`, the logP stood at 3.96.
The same measure for `C=CCN(N=O)C(=O)NCCCC(NC(C)=O)C(=O)NCc1ccccc1` (stereo unspecified): 1.3.
Take `COc1cccc(OC)c1C(=O)Nc1nnc(-c2ccc(Cl)cc2)s1`: the logP came to 3.96.
For `CCC(C(=O)OC)c1ccc(-n2sc3ccccc3c2=O)cc1` (stereo unspecified), the logP was determined as 3.91.
Consider `COc1ccc2c(c1OC)-c1ccc(OC)c(=O)cc1C(NC(C)=O)CC2` (stereo unspecified), for which the log partition coefficient (logP) came out at 1.02.
The same measure for `CCSc1nnc(C(C)(C)C)c(=O)n1N`: 2.08; for `CCOc1ccccc1NC(=O)OC1CCCCC1CN(C)C` (stereo unspecified): 4.14.
`COC(=O)Cc1ccc(-n2sc3ccccc3c2=O)cc1` yielded a logP of 2.83.
For `C#CCOc1cc(NC=NOCC=C)cc(Cl)c1OCC#C`, the logP came out at 2.7.
`CCCc1ccc(OC(=O)N(C)C)cc1` returned a logP of 3.15.
In turn, `C=CCC(C)OC(=O)Nc1ccc(OCC)c(OCC)c1` (stereo unspecified) gave a logP of 3.37.
The same measure for `COc1ccc2cc(CC(=O)OCC(=O)NC(C)(C)C)ccc2c1`: 3.6.
The compound `O=C1NC(Cc2c[nH]c3ccccc23)C(=O)NC1Cc1ccc(O)cc1` (stereo unspecified) gave a logP of 1.05.
Compound `COc1ccc(-c2nnc(NC(=O)c3c(OC)cccc3OC)s2)cc1` displayed a logP of 3.56.
Compound `Cc1cc[n+]([O-])cc1` showed a logP of -0.88.
`C#CCOc1cc(NC=NOC)cc(F)c1OCC#C` yielded a logP of 1.8.
Consider `CN(C)C(=O)Oc1ccc(F)cc1`, for which the logP turned out to be 1.58.
